Consider four compounds from US7488743B2, “Indolin-2-one pyridine derivatives, preparation and therapeutic use thereof” (Sanofi-Aventis, priority 2004, dated 2009).

Series [1] has as its target T1, human uterine oxytocin receptors (Homo sapiens, UniProt P30559).
T1 construct: host or cells: membrane preparation
T1 sequence (P30559 1-389): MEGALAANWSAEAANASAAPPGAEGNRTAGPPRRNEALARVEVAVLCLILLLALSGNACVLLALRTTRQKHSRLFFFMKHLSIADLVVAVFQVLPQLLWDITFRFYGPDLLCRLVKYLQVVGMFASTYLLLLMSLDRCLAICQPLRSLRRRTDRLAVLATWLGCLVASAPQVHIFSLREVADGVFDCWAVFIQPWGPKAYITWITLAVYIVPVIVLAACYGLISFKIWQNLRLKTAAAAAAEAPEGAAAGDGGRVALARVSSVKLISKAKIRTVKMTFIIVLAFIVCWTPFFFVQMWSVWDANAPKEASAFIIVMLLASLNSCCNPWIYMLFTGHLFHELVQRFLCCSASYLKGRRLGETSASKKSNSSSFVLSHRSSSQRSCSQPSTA
As to the kind of experiment: in vitro binding test: displacement of a radioiodinated oxytocin analog in a membrane preparation. The following applies: read-out: IC50 (concentration which inhibits 50% of the binding of the radioiodinated oxytocin analog to its receptors). How it is done: The compounds according to the invention have formed the subject of biochemical and pharmacological studies. The affinity of the compounds according to the invention for oxytocin receptors was determined in an in vitro binding test using the method described by J. Elands et al., Eur. J. Pharmacol. (1987), 147, pp. 197-207. This method consists in studying in vitro the displacement of a radioiodinated oxytocin analog at the oxytocin receptors in a membrane preparation of human uterine oxytocin receptors. The IC50 values (concentration which inhibits 50% of the binding of the radioiodinated oxytocin analog to its receptors) are low and vary from 10^−10 to 10^−6 M in the latter test.

Series [2] concerns the target T2, cells expressing human oxytocin receptors (Homo sapiens, UniProt P30559).
T2 sequence (P30559 1-389): T1 sequence (P30559 1-389)
As to the kind of experiment: measurement of intracellular calcium (agonist or antagonist nature). The format is cell-based. How it is done:
The agonist or antagonist nature of the compounds is determined in vitro in a test for the measurement of intracellular calcium with respect to cells expressing human oxytocin receptors according to the general technique described in Am. J. Physiol., 268, and Heart Circ. Physiol. (1995), 37, H404-H410.
A general note: Calcium flux is commonly read through the fluorescence of an indicator in the cells.

For series [3], the target named is human vasopressin V2 receptors (Homo sapiens, UniProt P30518). The series can be described thus: affinity for vasopressin V2 receptors (method of Birnbaumer et al.). The format is binding. Particulars: tested at a concentration of 1 μM; read-out: percentage of inhibition on V2 receptors. An excerpt:
(§1) The affinity of these compounds for human vasopressin V1a receptors (method described by M. Thibonnier et al. in J. Biol. Chem. (1994), 269, pp. 3304-3310), V1b receptors (method described by T. Sugimoto et al. in J. Biol. Chem. (1994), 269, pp. 27088-27092) and V2 receptors (method described by T. Birnbaumer et al. in Nature (Lond.) (1992), 357, pp. 333-335) has also been studied. The compounds studied have little or no affinity for the V1a, V1b and V2 receptors.

For series [4], the target named is T3, human vasopressin V1b receptors (Homo sapiens, UniProt P47901).
T3 sequence (P47901 1-424): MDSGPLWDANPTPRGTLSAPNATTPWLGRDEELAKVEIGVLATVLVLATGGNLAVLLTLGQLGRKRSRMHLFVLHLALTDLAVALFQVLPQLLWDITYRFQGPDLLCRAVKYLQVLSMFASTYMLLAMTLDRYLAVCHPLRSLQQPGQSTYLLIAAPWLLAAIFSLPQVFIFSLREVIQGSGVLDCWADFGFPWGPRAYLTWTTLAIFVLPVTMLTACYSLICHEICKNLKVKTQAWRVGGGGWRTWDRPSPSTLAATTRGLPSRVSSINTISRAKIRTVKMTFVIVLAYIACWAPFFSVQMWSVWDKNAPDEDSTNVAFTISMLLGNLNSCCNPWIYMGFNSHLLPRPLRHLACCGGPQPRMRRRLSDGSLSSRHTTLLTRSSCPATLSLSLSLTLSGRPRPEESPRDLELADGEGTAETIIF
The series can be described thus: affinity for vasopressin V1b receptors (method of Sugimoto et al.). It is filed as binding. Particulars: tested at a concentration of 1 μM; read-out: percentage of inhibition on V1b receptors.
From the text: as §1

In series [5] the target is human vasopressin V1a receptors (Homo sapiens, UniProt P37288). The series can be described thus: affinity for vasopressin V1a receptors (method of Thibonnier et al.). It is filed as binding. The following applies: tested at a concentration of 1 μM; read-out: percentage of inhibition on V1a receptors.
From the text: as §1

Structures are written as SMILES. Structures can show the parent of a compound that is named as a salt.

human vasopressin V1a receptors, sequence (P37288 whole entry): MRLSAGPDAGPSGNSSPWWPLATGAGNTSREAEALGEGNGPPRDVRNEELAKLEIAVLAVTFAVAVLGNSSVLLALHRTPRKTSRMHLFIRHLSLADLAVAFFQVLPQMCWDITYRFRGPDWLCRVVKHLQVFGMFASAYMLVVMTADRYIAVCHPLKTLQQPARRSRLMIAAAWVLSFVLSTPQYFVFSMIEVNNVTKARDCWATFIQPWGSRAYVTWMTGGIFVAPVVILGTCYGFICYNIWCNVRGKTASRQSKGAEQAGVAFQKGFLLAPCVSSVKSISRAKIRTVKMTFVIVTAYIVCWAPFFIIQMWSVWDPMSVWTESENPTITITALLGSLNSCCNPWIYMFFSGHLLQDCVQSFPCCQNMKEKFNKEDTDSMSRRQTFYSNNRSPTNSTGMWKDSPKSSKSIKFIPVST
human vasopressin V2 receptors, sequence (P30518 whole entry): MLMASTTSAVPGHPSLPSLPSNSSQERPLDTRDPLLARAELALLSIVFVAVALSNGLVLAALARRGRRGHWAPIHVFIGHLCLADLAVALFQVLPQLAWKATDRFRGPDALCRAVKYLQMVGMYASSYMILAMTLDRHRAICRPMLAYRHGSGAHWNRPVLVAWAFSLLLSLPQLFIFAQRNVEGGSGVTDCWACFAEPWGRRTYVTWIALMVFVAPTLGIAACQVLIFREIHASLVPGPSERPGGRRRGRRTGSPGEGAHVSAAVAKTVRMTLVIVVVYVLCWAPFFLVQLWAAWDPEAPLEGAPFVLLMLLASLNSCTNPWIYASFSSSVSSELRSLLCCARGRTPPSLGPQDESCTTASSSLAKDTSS

The melting point is the temperature of the solid-liquid transition. In turn, `CCN(Cc1ccc[n+]([O-])c1)C(=O)c1ccc(Cl)c(C2(C)C(=O)N(Cc3ccc(OC)cc3OC)c3ccc(Cl)cc32)c1` (centres unmarked) (as salt: hydrochloride) [example 7, 4-chloro-3-[5-chloro-1-(2,4-dimethoxybenzyl)-3-methyl-2-oxo-2,3-dihydro-1H-indol-3-yl]-N-ethyl-N-(1-oxypyrid-3-ylmethyl)benzamide hydrochloride] yielded a melting point of 176 °C.
For `CCN(Cc1ccc[n+](CC(=O)O)c1)C(=O)c1ccc(Cl)c(C2(C)C(=O)N(Cc3ccc(OC)cc3OC)c3ccc(Cl)cc32)c1` (centres unmarked) [example 2, 1-Carboxymethyl-3-[({4-chloro-3-[5-chloro-1-(2,4-dimethoxybenzyl)-3-methyl-2-oxo-2,3-dihydro-1H-indol-3-yl]benzoyl}(ethyl)amino)methyl]pyridinium chloride], in series [1], the IC50 was 6.9 nM.
Consider `CCN(Cc1ccc[n+]([C@@H]2O[C@H](C(=O)O)[C@@H](O)[C@H](O)[C@H]2O)c1)C(=O)c1ccc(Cl)c(C2(C)C(=O)N(Cc3ccc(OC)cc3OC)c3ccc(Cl)cc32)c1` (stereo partly drawn) [example 3, 1-(β-D-Glucopyranuronosyl)-3-[({4-chloro-3-[5-chloro-1-(2,4-dimethoxybenzyl)-3-methyl-2-oxo-2,3-dihydro-1H-indol-3-yl]benzoyl}(ethyl)amino)methyl]pyridinium chloride], for which, in series [2], the IC50 turned out to be 3 nM and the “agonist or antagonist nature” value is “antagonist”.
As usually defined, the inhibition is the change of the read-out against control, counted positive when it falls. Take `CCN(Cc1ccc[n+]([O-])c1)C(=O)c1ccc(Cl)c(C2(C)C(=O)N(Cc3ccc(OC)cc3OC)c3ccc(Cl)cc32)c1` (centres unmarked) [example 7, 4-chloro-3-[5-chloro-1-(2,4-dimethoxybenzyl)-3-methyl-2-oxo-2,3-dihydro-1H-indol-3-yl]-N-ethyl-N-(1-oxypyrid-3-ylmethyl)benzamide hydrochloride]: in series [1], the IC50 is less than 50 nM. Moreover, the inhibition at 1 µM in series [3], in series [4] and in series [5] was less than 50% throughout.
